Values of other authors, collected in patent US6497890B2, “Anti-wrinkle preparation and method of reducing wrinkles in facial skin and neck” (priority 1996, dated 2002).

Tested on: rheumatoid arthritis patients
Settings: RA patients; mostly

| Compound | onset of action |
| --- | --- |
| CN(Cc1cnc2nc(N)nc(N)c2n1)c1ccc(C(=O)N[C@@H](CCC(=O)O)C(=O)O)cc1 [Methotrexate] | ≤ 1 month |

Same assay, conditions: remittive agents in RA

| Compound | EFFICACY (estimated rate) | TOXICITY (estimated rate) |
| --- | --- | --- |
| O=C(O)c1cc(/N=N/c2ccc(S(=O)(=O)Nc3ccccn3)cc2)ccc1O [Sulfasalazine] | Intermediate | Intermediate |
| CN(Cc1cnc2nc(N)nc(N)c2n1)c1ccc(C(=O)N[C@@H](CCC(=O)O)C(=O)O)cc1 [Methotrexate] | High | Intermediate |
| CCN(CCO)CCCC(C)Nc1ccnc2cc(Cl)ccc12 (centres unmarked) [Hydroxychloroquine] | Intermediate | Low |
| O=P1(N(CCCl)CCCl)NCCCO1 (centres unmarked) [Cyclophosphamide] | High | High |
| Cn1cnc([N+](=O)[O-])c1Sc1ncnc2nc[nH]c12 [Azathioprine] | Intermediate | High |
| CC(=O)OC[C@H]1O[C@@H]([S-])[C@H](OC(C)=O)[C@@H](OC(C)=O)[C@@H]1OC(C)=O.CCP(CC)CC.[Au+] [Auranofin] | Intermediate | Intermediate |
| CC(C)(S)[C@@H](N)C(=O)O [Penicillamine] | Intermediate | High |

Tested on: not given
Settings: commonly prescribed NSAIDS

| Compound | Half Life |
| --- | --- |
| O=C(O)CCc1nc(-c2ccccc2)c(-c2ccccc2)o1 [Oxaprozin] | 40 h |
| Cc1ccc(C(=O)c2ccc(CC(=O)O)n2C)cc1 [Tolmetin] | 1 to 2 h |
| CC1=C(CC(=O)O)c2cc(F)ccc2/C1=C\c1ccc([S+](C)[O-])cc1 (centres unmarked) [Sulindac] | 16 h |
| COc1ccc2c(c1)c(CC(=O)O)c(C)n2C(=O)c1ccc(Cl)cc1 [Indomethacin] | 3 to 11 h |
| O=C(O)Cc1ccccc1Nc1c(Cl)cccc1Cl [Diclofenac] | 1.5 h |
| Cc1ccc(Cl)c(Nc2ccccc2C(=O)O)c1Cl [Meclofenamate] | 2 to 3 h |
| CN1C(C(=O)Nc2ccccn2)=C(O)c2ccccc2S1(=O)=O [Piroxicam] | 30 to 86 h |
| CC(C(=O)O)c1cccc(Oc2ccccc2)c1 (centres unmarked) [Fenoprofen] | 2 h |
